Measured values taken from PubChem BioAssay AID743417 (Broad Institute, 2014).
Records with an inconclusive call do not appear. Active and inactive are the calls of the source.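 How the source made its calls: active means compounds lowering the luciferase signal with a fitted half-maximal dose at most twice their top valid dose (cut at about 30 µM in these data); inconclusive means flat fits with moderate signal loss, or poor fits; inactive means the rest.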

Test system: Clone20 osteoblast Shn3 3'UTR firefly luciferase, 24 h
Test: Shn3 3'UTR reporter inhibitors, dose response, cell-based, Clone20 osteoblasts, luminescence, dry powder, set 2 (AID 743417)

| SMILES | AC50 |
| --- | --- |
| CC(N)C(=O)NC1C2C(=C(O)CC(O)C2O)C(=O)OC1(C)C(Cl)Cl (stereo not given) | 1.85 µM |
| Cc1cc(Cl)c(S(=O)(=O)N2CCSCC2)cc1OCC(=O)NC1CCCCC1 | 4.11 µM |
| O=C1CSc2ccc(C(=O)Nc3cccc(S(=O)(=O)Nc4ccc(Br)cc4)c3)cc2N1 | 3.08 µM |
| COc1ccc(C(NC(C)=O)c2cc(Cl)c3cccnc3c2O)cc1 (stereo not given) | 1.61 µM |
| COc1ccc(Cn2c(SCc3cc(C)ccc3C)nc3cc(OC)c(OC)cc3c2=N)cc1 | 7.91 µM |
| O=C(c1ccccc1)C(CCC(CN1CCOCC1)C(=O)c1ccccc1)CN1CCOCC1 (stereo not given) | 12.8 µM |
| c1ccc(CNc2ncnc3ccccc23)cc1 | 1.5 µM |
| Cc1ccc(S(=O)(=O)N2CCN(C(=O)C3CCN(c4ncnc5sc(C)c(C)c45)CC3)CC2)c(C)c1 | 2.12 µM |
| CCN(c1ccccc1)S(=O)(=O)c1ccc(NC(=O)c2nc(S(C)(=O)=O)ncc2Cl)cc1 | 0.562 µM |
| CN(CC(=O)Nc1ccccc1Cl)C(=O)c1cccc(S(=O)(=O)N2CCN(c3ccc(F)cc3)CC2)c1 | 3.62 µM |
| CC(C)c1nc(SCC(=O)Nc2cccc(C(F)(F)F)c2)c2c(=O)n(C)c(=O)n(C)c2n1 | 2.7 µM |
| CCCNC(=O)c1nnsc1S(=O)c1ccc(Cl)cc1 (stereo not given) | 1.26 µM |
| COC(=O)c1ccc(CCc2cc(O)ccc2O)cc1 | 3.14 µM |
| O=C1NC2C(=CC(O)C(O)C2O)c2cc3c(c(O)c21)OCO3 (stereo not given) | < 0.26 µM |
| S=C(Nc1ccccc1)Nc1ccc(OCc2ccc(Cl)cc2Cl)cc1 | 0.405 µM |
| N#C/C(=C(\O)Cc1ccccc1)c1nc2ccccc2[nH]1 | > 70 µM (inactive) |
| O=C(c1ccc(F)cc1)C(CN1CCOCC1)c1ccccc1 (stereo not given) | 17.6 µM |
| CCc1ccc(CN(C)C(=O)c2cc(COc3cccc4cnccc34)on2)cc1 | 1.92 µM |
| Cc1onc(-c2ccccc2Cl)c1C(=O)N(C)C1CCCCC1 | 2.74 µM |
| O=[N+]([O-])c1ccc(Sc2cccc3cccnc23)c([N+](=O)[O-])c1 | 1.71 µM |
| CN(CCOc1ccc(Cl)cc1)C(=O)c1cccc(S(=O)(=O)N2CCN(Cc3ccccc3)CC2)c1 | 2.29 µM |
| O=C(/C=C1\C(=O)Nc2ccccc21)/C=C1\C(=O)Nc2ccccc21 | 9.5 µM |
| O=c1c2ccccc2cnn1-c1nc2ccccc2[nH]1 | 1.33 µM |
| CCCCOC(=O)c1[nH]c2c(c1C)C(=O)CC(c1cc(OC)c(OC)c(OC)c1)C2 (stereo not given) | 1.35 µM |
| COCCn1c(CN2CCN(c3cccc(Cl)c3)CC2)nc2c1c(=O)n(C)c(=O)n2C | 10.7 µM |

| SMILES | AC50 |
| --- | --- |
| Cc1cc2c(cc(C(=O)N3CCC(C(=O)NC4CCCC4)CC3)n2Cc2c(F)cccc2Cl)o1 | 4.81 µM |
| CCN1CCN(Cc2ccc(NC(=O)c3cc(NC(=O)c4cncc(-c5ccc(C#N)cc5)c4)cc(OC)c3)cc2C(F)(F)F)CC1 | 3.36 µM |
| Cc1cccc(CS(=O)(=O)c2ncc(Cl)c(C(=O)NCc3ccc4c(c3)OCO4)n2)c1 | 0.938 µM |
| CN(C)S(=O)(=O)c1cccc(NC(=O)c2cccc(S(=O)(=O)N3CCc4ccccc43)c2)c1 | 3.92 µM |
| CC(C)c1nnc(NC(=O)c2nc(S(=O)(=O)Cc3ccc(F)cc3)ncc2Cl)s1 | 2.83 µM |
| c1coc(CN(Cc2ccco2)c2ncnc3c2oc2ccccc23)c1 | 5.45 µM |
| CC(C)=CCC/C(C)=C/CNC(=O)C[C@H]1C[C@H](C(=O)N2CCOCC2)[C@@]2(C)c3[nH]c4cc(CCC(=O)N(C)C)ccc4c3CCN2C1=O | 1.11 µM |
| Cc1ccc(S(=O)(=O)N2CCN(c3ncnc4sccc34)CC2)cc1C | 3.53 µM |
| COc1ccc(CC2NCC(O)C2OC(C)=O)cc1 (stereo not given) | < 0.26 µM |
| CCC(=O)NC(C)c1cc(Cl)c2cccnc2c1O (stereo not given) | 5.19 µM |
| CCCCn1c(CN2CCN(c3ccccc3)CC2)nc2c1c(=O)n(C)c(=O)n2C | 2.05 µM |
| Cc1ccc(Nc2c(-c3ccccn3)nc3cccc(C)n23)cc1 | 1.9 µM |
| CCc1c(C)nc2cc(-c3ccc(OC)c(OC)c3)nn2c1NCC1CC1 | 5.11 µM |
| O=C(Nc1nc(-c2ccccn2)cs1)C1COc2ccccc2O1 (stereo not given) | 5.81 µM |
| Cc1ccc(S(=O)(=O)NCCc2cc3ccc(C)cc3[nH]c2=O)cc1 | > 70 µM (inactive) |
| O=C(c1ccc(S(=O)(=O)c2ccccc2Cl)c([N+](=O)[O-])c1)N1CCN(Cc2ccccc2)CC1 | 5.77 µM |
| COc1cc(/C=C/C(=O)c2ccc3c(c2)OCCO3)cc(Br)c1OCC(=O)N(C)C | 2.63 µM |
| Cc1ccccc1CS(=O)(=O)c1ncc(Cl)c(C(=O)Nc2ccc(F)cc2)n1 | 3 µM |
| COc1ccc(C(=O)NNC(=O)c2cccc(S(=O)(=O)N3CCOCC3)c2)cc1 | 23.2 µM |
| N=c1n(Cc2ccc(Cl)cc2)c2ccccc2n1CC(O)COc1ccccc1 (stereo not given) | 2.34 µM |
| C[C@H](NC(=O)c1nc[nH]c1C(=O)NCc1ccc(CNC(=O)OC(C)(C)C)cc1)c1ccccc1 | 11.7 µM |
| COc1ccc(CN2CCC(N(CCc3ccccc3)Cc3ccccc3)CC2)c(OC)c1 | 8.1 µM |
| Cc1ccc(NC(=O)CSc2ccc3c(c2)OCCO3)c(O)c1 | 0.343 µM |
| Cc1cc(N2CCCCC2)nc(NCc2ccccc2)n1 | 4.01 µM |
| COc1ccc(NS(=O)(=O)c2ccc(OC)c(N(C)S(=O)(=O)c3ccc(Cl)cc3)c2)cc1 | 2.92 µM |

| SMILES | AC50 |
| --- | --- |
| O=C(Nc1ccccc1Cc1ccccc1)c1ccccc1NS(=O)(=O)c1ccc(Cl)s1 | 8.18 µM |
| CCn1c2ccccc2c2cc(CNCc3ccc(OC)cc3OC)ccc21 | 14.7 µM |
| CCOc1cc(/C=C2\C(=O)ON=C2C)ccc1OCc1ccccc1 | 10.4 µM |
| COc1ccc(C2=NS(=O)(=O)N(C)C(C(=O)N3CCc4ccccc4C3)=C2)cc1OC | 4.99 µM |
| CCOC(=O)c1nc(S(C)(=O)=O)ncc1Cl | 6.37 µM |
| COc1ccc(CCNc2ncnc3sccc23)cc1OC | < 0.26 µM |
| COc1ccc(CC(=O)Nc2cccc(S(=O)(=O)N3CCCCCC3)c2)cc1OC | 2.27 µM |
| COc1ccc([C@@]23Oc4cc(OC)cc(OC)c4[C@]2(O)[C@H](O)[C@H](C(=O)N(C)C)[C@H]3c2ccccc2)cc1 | < 0.26 µM |
| COc1cc2c(cc1OC)C1C(=O)c3ccc4c(c3OC1CO2)CC(C(C)C)O4 (stereo not given) | < 0.26 µM |
| O=C1N(c2ccccc2)C[C@@H]2C[C@@H](c3cc4ccccc4o3)N3CCC[C@@]123 | 0.536 µM |
| COC(=O)c1ccc(NC(=O)c2nc(S(=O)(=O)Cc3cccc(C)c3)ncc2Cl)cc1 | 1.35 µM |
| Cc1cc2cc(CN(CC3CCCO3)C(=S)Nc3ccccc3)c(=O)[nH]c2cc1C (stereo not given) | 2.91 µM |
| Cc1ccc(Nc2c(-c3ccccn3)nc3ccc(C)cn23)cc1 | 1.74 µM |
| CCS(=O)(=O)c1ccc2oc(SCC(=O)N3CCCCC3)nc2c1 | > 70 µM (inactive) |
| CC(O)(c1ccncc1)c1nc(-c2cccc(C(F)(F)F)c2)cs1 (stereo not given) | 5.34 µM |
| CCOC(=O)C1CCCN(C(=O)Cn2sc3nc(C)cc(C)c3c2=O)C1 (stereo not given) | 12.5 µM |
| CS(=O)(=O)c1nc(-c2ccc(Br)cc2)cc(-c2ccccc2)c1C#N | 4.72 µM |
| CC(Oc1ccc(Cl)cc1Cl)c1nc(-c2ccc(NC(=O)c3ccncc3)cc2)no1 (stereo not given) | 3.93 µM |
| O=C(NCCc1ccccc1)c1ccc2c(c1)OCCCO2 | 1.05 µM |
| CN(C)CC(C(=O)Cc1ccccc1)c1ccccc1 (stereo not given) | 7.81 µM |
| COc1ccc(C)c2sc(N(CCCN(C)C)C(=O)c3ccc(S(=O)(=O)N4CCc5ccccc5C4)cc3)nc12 | 4.4 µM |
| CCOC(=O)C1CCN(c2cc3c(cc2NC(=O)c2ccccc2Br)n(C)c(=O)n3C)CC1 | 21.3 µM |
| COc1ccc(NC(=O)c2nc(S(=O)(=O)Cc3cccc(C)c3)ncc2Cl)c(OC)c1 | 0.299 µM |
| C=CCNc1nc(N2CCCCC2)c(C#N)c2c1CN(Cc1ccccc1)CC2 | 16.8 µM |
| COc1ccc(CNc2ncnc3c2[nH]c2ccccc23)cc1 | 4.19 µM |
